The values below come from patent US20050271661A1, “Methods and reagents for the treatment of immunoinflammatory disorders” (priority 2004, published 2005).

The test system of one test is IκB. The test is described as follows: IκB degradation western blot, PI-activated primary T cells. Format: cell-based, human. Particulars: PI 30 min. The method, then: (§1) Purified primary human T-cells (10^7 T-cells at 1×10^6 cells/ml) were pretreated with various drugs for 30 min at 37° C. and then stimulated for 30 minutes with PMA and ionomycin. Cells were then pelleted and extracted with 2× protein load dye (Invitrogen, NP0008). Total cell lysates were boiled and centrifuged before loading. 10-15 μl of lysate (approximately 250,000 cells) per lane was run on a 10-12% Tris-Bis gel, or a 3-8% Tris-Acetate gel (precast from Invitrogen). Proteins were immunoblotted onto immobilon PVDF membrane (Millipore) for 30 min using an Owl Semi-Dry electroblotting system. Membranes were blocked with 4% milk for two hours and then incubated with appropriate primary antibodies, washed three times and then probed with secondary antibodies. Chemi-glow™ (Alpha Innotech) chemilluminescent detection solutions were added and image visualized and captured using an Alpha Imager 8900 (Alpha Innotech). NFAT1 was visualized using an antibody obtained from BD Transduction Laboratory (#610703). IκB-alpha was visualized using an antibody from Santa Cruz Biotechnology (#sc371). Mitogen activated protein kinases (MAPK) were visualized using the following antibodies obtained from Cell Signaling: ERK p44/p42 (phospho, #9101; total, #9102); p38 (phospho, #9211; total, #9212); and JNK/SAPK (phospho, #9251; total, #9252).
Primary T cells were activated in vitro with PI (30 min) and extracted for western blot analysis.
For orientation: Immunoblotting shows a protein as a band on a membrane.

In the next test the test system is ERK1/2. Description: ERK1/2 phosphorylation western blot, activated primary T cells. Format: cell-based, human. Particulars: highest dose tested: cyclosporine 1 μM, prednisolone 3 μM, amoxapine 30 μM, paroxetine 30 μM. As to the method:
as §1
(§2) Purified primary T cells were activated for 30 minutes and extracted for western blot analysis. Activation of each MAPK was tracked using phosphospecific antibodies to a regulatory site on each type of MAPK, normalized by the measurement of total amounts of each MAPK species (FIGS. 4A-4C).

The subject of the next test is p38. The test is described as follows: p38 phosphorylation western blot, activated primary T cells. It is filed as cell-based, human. The settings on record: primary T cells activated 30 minutes. As to the method: as §1, §2
The test system of test [1] is NFκB. Description: NFκB-dependent transcription, NFκB luciferase reporter in CCRF-CEM cells activated with PI. Format: cell-based. The source says: (§3) Reporter plasmids were transfected into CCRF-CEM cells using nucleofection (Nucleofector; AMAXA, Germany). Reporter plasmids expressing firefly luciferase (Luc) were purchased from Stratagene. pNFAT-Luc contains four NFAT binding sites; pGRE-Luc contains four GRE sites, and pAP1-Luc contains seven AP1 binding sites. The NFκB luciferase reporter, p(IL6κB)3-50hu.IL6-luc+, contains three NFκB sites and was a generous gift of Dr. De Bosscher (University of Ghent, Belgium). 10^7 cells suspended in 100 μL Amaxa ‘R’ Cell-line solution were transferred to a cuvette. One μL (1 μg/μL) of solution containing reporter plasmid (firefly luciferase) and control plasmid (pRL-TK-Renilla) (Renilla luciferase) (Promega) at a ratio of (10:1) were added to the cell suspension. […] After transfection the cells were suspended in 200 μL medium, allowed to recover for an hour, equal volume of medium containing 2× drugs were added and incubated at 37° C. for 30 min. Then the cells were stimulated with PI for another five hours. The luciferase activity of each of plasmid and control Renilla-plasmid were measured as per the procedure in Promega Luciferase assay kit.
NFκB-dependent transcription was measured by transient transfection of an NFκB reporter plasmid into CCRF-CEM cells and subsequent activation with PI.
(In general: A reporter such as luciferase makes a cellular process visible.)

For test [2], the system named is NFAT. Description: NFAT nuclear translocation by immunofluorescence in PI-activated CCRF-CEM cells. Format: cell-based. An excerpt: NFAT1 was visualized using an antibody obtained from BD Transduction Laboratory (#610703).
Test [3] concerns NFAT. The test is described as follows: NFAT-dependent transcription, NFAT luciferase reporter in CCRF-CEM cells activated with PI. Format: cell-based.
Excerpt: as §3

For a further test, the system named is AP1. Description: AP1-dependent transcription, AP1 luciferase reporter in CCRF-CEM cells activated with PI. Format: cell-based.
Excerpt: as §3

Test [4] has as its system NFAT. The test is described as follows: NFAT dephosphorylation band shift on western blot, PMA/ionomycin-activated primary T cells. The settings on record: up to 3 μM. Format: cell-based, human. As to the method: as §1, with “Mitogen activated protein kinases (MAPK) were visualized using the following antibodies obtained from Cell Signaling: ERK p44/p42 (phospho, #9101; total, #9102); p38 (phospho, #9211; total, #9212); and JNK/SAPK (phospho, #9251; total, #9252).” left out
T cells were isolated from the buffy coat of male donors between the ages of 35 to 50 years. These T cells were activated in vitro with PMA/ionomycin (PI) for 30 minutes and the phosphorylation of NFAT analyzed by mobility shift on a western blot. […]

Another test deals with JNK. Description: JNK activation (phosphorylation) western blot, activated primary T cells. It is filed as cell-based, human. The settings on record: primary T cells activated 30 minutes. The method, then:
as §1, with “#9252). […]” for “#9252).”

In test [5] the test system is NFκB. Particulars: activated CCRF-CEM cells, p65.

The structures appear in SMILES notation.

As for `Clc1ccc2c(c1)C(N1CCNCC1)=Nc1ccccc1O2` [amoxapine], the “concentration at which IκB stabilization effects begin” value in the test with IκB was found to be 25 µM. The “prevention of phosphorylation of ERK1/2” value with ERK1/2 is reported as “not effective”. Also, the “effect in the p38 assay” value in the test with p38 was “no effect”.
Turning to `O=C(/C=C/c1ccc(O)c(O)c1)OCCc1ccccc1` [CAPE, caffeic acid phenethyl ester], in the test with NFκB [1] (CCRF-CEM cells, NFκB reporter, PI), the “inhibition of NFκB-dependent transcription” value was “inhibited”.
For `Fc1ccc([C@@H]2CCNC[C@H]2COc2ccc3c(c2)OCO3)cc1` [paroxetine], the IC50 is 30 µM in the test on NFAT [2] (Homo sapiens, read-out: IC50, inhibition of NFAT translocation); 9 µM with NFAT [3] (Homo sapiens, CCRF-CEM cells, NFAT reporter, read-out: IC50, inhibition of PI-stimulated NFAT transcription); 20 to 30 µM with AP1 (CCRF-CEM cells, AP1 reporter, PI). For the same compound, the “concentration at which IκB stabilization effects begin” value in the test on IκB turned out to be 15 µM. In addition, the “prevention of phosphorylation of ERK1/2” value in the test with ERK1/2 was “not effective”. In addition, the “concentration above which some phospho-p38 inhibition is seen” value in the test with p38 is recorded as “above 10 μM”.
As for `C[C@]12C=CC(=O)C=C1CC[C@@H]1[C@@H]2[C@@H](O)C[C@@]2(C)[C@H]1CC[C@]2(O)C(=O)CO` [prednisolone], in the test on NFAT [4], the “effect on NFAT dephosphorylation” value is “no effect”. Also, the “activity in NFAT translocation assay” value in the test on NFAT [2] was “not active”. Moreover, the “inhibition of PI-stimulated NFAT transcription” value in the test on NFAT [3] (even at high doses) is “no strong inhibition”. In addition, the “effect on IκB degradation” value in the test with IκB is “no effect”. In the test with NFκB [1] (at 1 μM), the “inhibition of NFκB-dependent transcription” value turned out to be 30%. Also, the “prevention of phosphorylation of ERK1/2” value with ERK1/2 was “not effective”. The “effect in the p38 assay” value in the test with p38 is recorded as “no effect”. The “effect on JNK” value in the test with JNK is reported as “no effect”. In addition, the “inhibition of AP1-dependent transcription” value in the test with AP1 (at 300 nM) came out at 30%. In the test on NFκB [5], the “effect on NFκB translocation” value was “no effect”.

Broadly, the IC50 is the concentration at which inhibition is half-maximal.
